Reference: patent publication US20130123287A1, “CONTROL AGENT FOR SOFT ROT AND CONTROL METHOD FOR THE SAME” (ISHIHARA SANGYO KAISHA, LTD., priority 2010, published 2013)

Columns and labels:
[1] = system: bacteria causing the soft rot (Erwinia carotovora); experiment: Inhibition test of growth of bacteria causing soft rot, Reference Test Example 5; type: cell-based; details: for formed colonies (growth state), grade: PSA medium, 27 degrees Celsius, 2 days
Protocol: An inhibition test of the growth of bacteria causing the soft rot was done, when a control agent was directly applied to the bacteria causing the soft rot. A given volume of each pesticide of mepanipyrim (Flupika FL [trade name] manufactured by Nippon Soda Co., Ltd.) and streptomycin (Mycin Wettable powder [trade name] manufactured by Hokko Chemical Industry Co., Ltd.) was added together with a suspension of the bacteria causing the soft rot (Erwinia carotovora) to a preliminarily dissolved PSA culture medium (55 degrees Celsius) for subsequent thorough agitation, which was then spread on a plate for culturing at 27 degrees Celsius for 2 days, to examine the growth state. Subsequently, the formed colonies were examined according to the following three grades. • +: at the same level as the level of non-treated lot.
Plus or minus: apparently less than the colonies of the non-treated lot. • −: almost no colonies observed.

[2] = system: soft rot of Chinese cabbage; experiment: Test for controlling soft rot of Chinese cabbage, Example 2 / Comparative Example 2 (field, cultivar Harebutai 65); type: in vivo; details: 1/1000 dilution, 300 L/10a sprayed twice on stems and leaves, 64 days after start
From the text: Frequency of the disease=[sigma(number of plants with the onset of the disease at each severity level*index of the onset of the disease)/(plants examined*4)]*100
Disease control value=[1-(frequency of the disease in the treated lot/frequency of the disease in the non-treated lot)]*100
• 0: No onset • 1: Onset in some of outer leaves (shippable) • 2: Onset in outer leaves and some of head leaves (by removing damaged parts, the resulting cabbage can be shipped as small cabbage but is ranked as grade B). • 3: Most of head leaves are inflicted with the onset of the disease or with severer damages (not shippable) • 4: Whole cabbage plant is inflicted with the onset of the disease and is dead.
200 g/l Azoxystrobin (Amistar 20 FLOWABLE [trade name], manufactured by Syngenta Japan K.K.) was adjusted to 500 g ai/10a (0.5 g/m^2, 2500 ml Product/10a) as the amount of the active ingredient and to 150 L/10a as the volume of diluent water.
30% w/w triflumizol (TRIFUMIN WP [trade name], manufactured by Nippon Soda Co., Ltd.) was adjusted to 500 g ai/10a (0.5 g/m^2, 1667 g Product/10a) as the amount of the active ingredient and to 150 L/10a as the volume of diluent water.
100 g/1 cyazofamid (RANMAN PLOWABLE [trade name], manufactured by Ishihara Sangyo Kaisha, Ltd.) was adjusted to 500 g ai/10a (0.5 g/m^2, 5000 ml Product/10a) as the amount of the active ingredient and to 150 L/10a as the volume of diluent water.
50% w/w penthiopyrad (GAIA WG [trade name], manufactured by Mitsui Chemicals Agro, Inc.) was adjusted to 500 g ai/10a (0.5 g/m^2, 1000 g Product/10a) as the amount of the active ingredient and to 150 L/10a as the volume of diluent water.
50 g/l flusulfamide (SCABLOCK SC [trade name], manufactured by Mitsui Chemicals Agro, Inc.) was adjusted to 500 g ai/10a (0.5 g/m^2, 10000 ml Product/10a) as the amount of the active ingredient and to 150 L/10a as the volume of diluent water.
400 g/1 chlorothalonil (Daconil 1000 [the trade name], manufactured by Sumitomo Chemical, Limited) was adjusted to 1000 g ai/10a (1.0 g/m^2, 2500 ml Product/10a) as the amount of the active ingredient and to 150 L/10a as the volume of diluent water.
After spreading an agricultural mulch-sheet and opening planting holes (diameter of about 5 cm) for permanent planting through the mulch-sheet, the spray solutions prepared as described above were sprayed onto the planting holes such that the amount of treated active ingredient of chlorothalonil was 1.0 g/m^2 (150 L per 10a) and the amount of each of the remaining spray solutions was 0.5 g/m^2 (150 L per 10a), followed by air-drying; subsequently, seedlings of Chinese cabbage (cultivar Harebutai 65) grown for 4 weeks in cell mold trays (128 holes/nursery box) were planted such that 19 seedlings were planted in each test lot having an area of 2.4 m^2 with two replications.
Preparation was performed by diluting streptomycin (Mycin 20 wettable powder solution [under the trade name] manufactured by Hokko Chemical Industry Co., Ltd.) with water to 1/1000.
In a field spread with the agricultural mulch-sheet, Chinese cabbage seedlings (cultivar: Harebutai 65) grown by the same method as in Example 2 were planted by the same method as in Example 2, for spraying the spray solution of streptomycin prepared above in (1) (at each spray volume of 300 L/10a) twice (27 days and 48 days after the planting of the seedlings) on the stems and leaves with a sprayer.
64 days after the start of the tests, all the plants in each lot were examined about the severity level of the disease to assess the frequency of the disease and the disease control value. In the same manner as described above, the frequency of the disease and the disease control value were determined. Additionally, soft rot is a disease with damages hardly controlled, so even a chemical at the level C determined by the tests of the effects can practically be used.

`[H]/N=C(/N)N[C@H]1[C@H](O)[C@@H](O)[C@H](O[C@@H]2O[C@@H](C)[C@](O)(C=O)[C@H]2O[C@@H]2O[C@@H](CO)[C@H](O)[C@@H](O)[C@@H]2NC)[C@@H](N/C(N)=N\[H])[C@@H]1O` [Streptomycin] was tested. Which “formed colonies (growth state), grade” value ([1]; 1 ppm active ingredient) did it give?
The value was “+, ±”.

What about the “formed colonies (growth state), grade” value ([1]; 10 ppm active ingredient) of the same molecule?
The value was “−, −”.

And the “direct antibacterial activity against Erwinia carotovora (in words)” value ([1]; active ingredient concentration of 10 ppm)?
Its value is “exerted a direct antibacterial activity”.

What about the Determination of effect [2] of the same molecule?
Its Determination of effect is “B (B: Effective (41 to 60 disease control value))”.
